Consider nine molecules from patent US20110086759A1, “CHEMICAL COMPOUNDS” (SYNGENTA CROP PROTECTION, INC., priority 2007, published 2011).

Common to all, as to format: in vivo
The subject of test [1] is Echinochloa crus-galli (ECHCG). Briefly: Pre-emergence biological efficacy, glasshouse pot test. The settings on record: 312 h, pre-emergence, 1,000 g/ha, evaluated after 13 days (100=total damage; 0=no damage), read-out: Percentage damage ECHCG. In outline:
(§1)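 Sow seeds in pots of standard soil; after one day in the glasshouse, spray test compound (1000 or 250 g/ha) in aqueous acetone/water with 0.5% Tween 20. Grow 13 days at 24/16 °C day/night, then score damage from 0 to 100.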

Test [2] deals with Alopecurus myosuroides (ALOMY). The test is described as above. Particulars: 312 h, pre-emergence, 1,000 g/ha, evaluated after 13 days (100=total damage; 0=no damage), read-out: Percentage damage ALOMY. Put shortly: as §1
The test system of test [3] is Setaria faberi (SETFA). Described as above. Particulars: 312 h, pre-emergence, 1,000 g/ha, evaluated after 13 days (100=total damage; 0=no damage), read-out: Percentage damage SETFA. Put shortly: as §1
In test [4] the test system is Amaranthus retoflexus (AMARE). The description is as above. Particulars: Amaranthus retroflexus, 312 h; pre-emergence, 1,000 g/ha, evaluated after 13 days (100=total damage; 0=no damage); read-out: Percentage damage AMARE. In outline: as §1
Test [5] deals with Ipomea hederaceae (IPOHE). The description is as above. The settings on record: Ipomoea hederacea, 312 h; pre-emergence, 1,000 g/ha, evaluated after 13 days (100=total damage; 0=no damage); read-out: Percentage damage IPOHE. Put shortly: as §1
For test [6], the system named is Solanum nigrum (SOLNI). Described as above. Particulars: 312 h, pre-emergence, 1,000 g/ha, evaluated after 13 days (100=total damage; 0=no damage), read-out: Percentage damage SOLNI. Put shortly:
as §1

For test [7], the system named is Echinochloa crus-galli (ECHCG). Briefly: Post-emergence biological efficacy, glasshouse pot test. Particulars: 312 h, post-emergence, 1,000 g/ha, evaluated after 13 days (100=total damage; 0=no damage), read-out: Percentage damage caused to weed species, ECHCG. Put shortly: (§2)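 Scored 13 days after spraying on a 0 (no damage) to 100 (total damage) scale. Treatment was a post-emergence spray at 1000 or 250 g/ha, from acetone/water 50:50 plus 0.5% Tween 20, onto 8-day-old plants in soil pots. Growth at 24/16° C, 14 h photoperiod, 65% humidity, watered twice daily.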

Test [8] deals with Alopecurus myosuroides (ALOMY). Described as above. Particulars: 312 h, post-emergence, 1,000 g/ha, evaluated after 13 days (100=total damage; 0=no damage), read-out: Percentage damage caused to weed species, ALOMY. In outline:
as §2

The test system of test [9] is Setaria faberi (SETFA). The description is as above. Particulars: 312 h, post-emergence, 1,000 g/ha, evaluated after 13 days (100=total damage; 0=no damage), read-out: Percentage damage caused to weed species, SETFA. Put shortly:
as §2

In test [10] the test system is Amaranthus retoflexus (AMARE). The test is described as above. Particulars: Amaranthus retroflexus, 312 h; post-emergence, 1,000 g/ha, evaluated after 13 days (100=total damage; 0=no damage); read-out: Percentage damage caused to weed species, AMARE. Put shortly: as §2
In test [11] the test system is Ipomea hederaceae (IPOHE). The description is as above. The settings on record: Ipomoea hederacea, 312 h; post-emergence, 1,000 g/ha, evaluated after 13 days (100=total damage; 0=no damage); read-out: Percentage damage caused to weed species, IPOHE. Put shortly:
as §2

Test [12] relates to Solanum nigrum (SOLNI). The description is as above. Particulars: 312 h, post-emergence, 1,000 g/ha, evaluated after 13 days (100=total damage; 0=no damage), read-out: Percentage damage caused to weed species, SOLNI. In outline:
as §2

`COC(=O)c1nc(C2CC2)nc(NCC(O)COc2ccc(Cl)cc2)c1Cl` (stereo not drawn) [Compound 4-264, 5-Chloro-4-[3-(4-chlorophenoxy)-2-hydroxy-propylamino]-2-cyclopropyl-6-methoxycarbonyl-pyrimidine]: the pest or weed control at 1000 g/ha in [1] amounted to 60%; in [2], 40%; in test [3], 80%; in test [4] it was 80%; in [5], 90%; in test [6], 90%. The pest or weed control at 1000 g/ha was determined as 50% in test [7]; 30% in [8]; 70% in test [9]; 100% in test [10]; 60% in test [11]; 100% in [12].
On to `COC(=O)c1nc(C2CC2)nc(NCC(=O)OCc2ccccc2)c1Cl` [Compound 4-265, 5-Chloro-2-cyclopropyl-6-methoxycarbonyl-4-(phenylmethoxy-carbonylmethyl-amino)pyrimidine], for which the pest or weed control at 1000 g/ha in test [1] worked out at 30%; in test [2] it was 10%; in test [3] it was 30%; in test [4] it was 100%; in [5] it was 90%; in [6], 90%. Further, the pest or weed control at 1000 g/ha stood at 20% in [7]; 20% in test [8]; 40% in test [9]; 100% in test [10]; 60% in [11]; 70% in [12].
As for `COC(=O)c1nc(C2CC2)nc(NCCC(=O)OCc2ccccc2)c1Cl` [Compound 4-266, 5-Chloro-2-cyclopropyl-6-methoxycarbonyl-4-[2-(phenylmethoxy-carbonyl)ethyl-amino]-pyrimidine], the pest or weed control at 1000 g/ha in [1] was 60%; in test [2], 50%; in test [3], 60%; in test [4], 100%; in test [5], 100%; in test [6] it was 100%. In addition, the pest or weed control at 1000 g/ha turned out to be 50% in test [7]; 60% in test [8]; 70% in [9]; 100% in test [10]; 100% in [11]; 80% in test [12].
For `COC(=O)c1nc(C2CC2)nc(NCC(c2ccccc2)c2ccccc2)c1Cl` [Compound 4-267, 5-Chloro-2-cyclopropyl-4-[2,2-(diphenyl)-ethylamino]-6-methoxycarbonyl-pyrimidine], the pest or weed control at 1000 g/ha in test [1] turned out to be 10%; in test [2] it was 10%; in test [3], 10%; in [4], 90%; in [5], 60%; in [6] it was 60%. Also, the pest or weed control at 1000 g/ha is 10% in [7]; 10% in test [8]; 20% in test [9]; 90% in [10]; 70% in test [11]; 80% in [12].
Take `COC(=O)c1nc(C2CC2)nc(NC(C)COc2ccccc2)c1Cl` (stereo not drawn) [Compound 4-268, 5-Chloro-2-cyclopropyl-6-methoxycarbonyl-4-(2-phenoxy-1-methylethylamino)-pyrimidine]: the pest or weed control at 1000 g/ha stood at 0% in [1]; 0% in test [2]; 0% in test [3]; 10% in test [4]; 10% in [5]; 10% in [6]. Besides, the pest or weed control at 1000 g/ha in test [7] worked out at 10%; in test [8] it was 10%; in [9] it was 10%; in [10], 30%; in test [11], 50%; in test [12] it was 60%.
Take `COC(=O)c1nc(C2CC2)nc(NC(C)COc2ccc(C#N)cc2)c1Cl` (stereo not drawn) [Compound 4-269, 5-Chloro-4-[2-(4-cyanophenoxy)-1-methyl-ethylamino]-2-cyclopropyl-6-methoxycarbonyl-pyrimidine]: the pest or weed control at 1000 g/ha amounted to 0% in test [1]; 0% in test [2]; 0% in test [3]; 40% in test [4]; 0% in [5]; 0% in test [6]. Also, the pest or weed control at 1000 g/ha is 0% in [7]; 20% in test [8]; 60% in [9]; 100% in test [10]; 90% in test [11]; 70% in [12].
Regarding `COC(=O)c1nc(C2CC2)nc(NC(C)C(O)c2ccc(O)cc2)c1Cl` (stereo not drawn) [Compound 4-271, 5-Chloro-2-cyclopropyl-4-[2-hydroxy-2-(4-hydroxyphenyl)-1-methyl-ethylamino]-6-methoxycarbonyl-pyrimidine], the pest or weed control at 1000 g/ha in [1] is 20%; in test [2], 20%; in test [3], 30%; in test [4], 100%; in test [5], 100%; in test [6], 90%. Besides, the pest or weed control at 1000 g/ha amounted to 70% in test [7]; 30% in test [8]; 80% in test [9]; 100% in test [10]; 100% in test [11]; 90% in [12].
As to `COC(=O)c1nc(C2CC2)nc(NC(CO)Cc2ccc(Cl)cc2)c1Cl` (stereo not drawn) [Compound 4-274, 5-Chloro-4-[2-(4-chlorophenyl)-1-hydroxymethyl-ethylamino]-2-cyclopropyl-6-methoxycarbonyl-pyrimidine], the pest or weed control at 1000 g/ha was found to be 30% in test [1]; 40% in test [2]; 40% in test [3]; 60% in test [4]; 80% in test [5]; 80% in test [6]. The pest or weed control at 1000 g/ha worked out at 20% in [7]; 30% in test [8]; 30% in test [9]; 100% in [10]; 50% in test [11]; 80% in test [12].
In the case of `COC(=O)c1nc(C2CC2)nc(NC(c2ccccc2)c2ccccc2)c1Cl` [Compound 4-277, 5-Chloro-2-cyclopropyl-4-(diphenylmethyl-amino)-6-methoxy-carbonylpyrimidine], the pest or weed control at 1000 g/ha in [1] turned out to be 0%; in test [2], 0%; in test [3], 0%; in test [4], 0%; in [5] it was 40%; in [6], 0%. Further, the pest or weed control at 1000 g/ha in [7] is 50%; in test [8], 30%; in [9], 50%; in [10], 90%; in [11] it was 70%; in test [12], 50%.
